One series deals with female house flies. In words: Comparative efficacy test by the microdrop method, subject compound and its seven other isomers. In kind it is in vivo. Conditions: for Insecticidal Efficacy Relative efficacy ratio: subject compound = 100. The method, then:
2-Methyl-4-oxo-3-(2-propynyl)-2-cyclopenten-1-yl 2,2-dimethyl-3-(2,2-dichlorovinyl)cyclopropanecarboxylate has a total of eight isomers based on two asymmetric carbon atoms of the acid portion and one asymmetric carbon atom of the alcohol portion. Therefore, a comparative efficacy test was conducted on female house flies using the microdrop method for the subject compound and the other seven isomers.

For the next series, the system named is house flies. Conditions: microdrop method, prallethrin isomers, d/d-trans isomer = 100; cited from earlier work.
For series [1], the system named is adult male American cockroaches. In words: Turntable method, test aerosols. In kind it is in vivo. Conditions: 0.35 g/300 ml aerosol; for KT50 value: 1 second spray, 5 minutes exposure. The source says: (2-a) Turntable Method: A glass cylinder having an inner diameter of 20 cm and height of 43 cm was placed on a wooden stand and a glass pot (outer diameter: 15 cm, height: 15 cm) containing two adult male American cockroaches was attached directly beneath the cylinder by using a glass plate as a shutter. Test aerosol insecticides prepared in accordance with Example 1 were sprayed into the glass cylinder for 1 second. Five seconds later, the glass plate shutter was pulled out and the test cockroaches were exposed to the descending aerosol particles for 5 minutes. The range of times until the occurrence of knockdown and the approximate average times were determined followed by observation of mortality 24 hours later. This test was repeated six times.

For a further series, the system named is American cockroaches. The series is described as follows: Residual contact method, test aerosols on decorative sheet. Conditions: for Mortality after 72 hours, After 1 day of spray: 0.35 g/300 ml aerosol at 25 mL/m^2, 2 hours contact 1 day after spraying. In kind it is in vivo. The method, then:
(2-b) Residual Contact Method: The test aerosols were sprayed onto a decorative sheet measuring 20 cm on a side at the rate of 25 mL/m^2. After 1 day of spraying, a glass ring measuring 12 cm in diameter was placed on the decorative sheet and five American cockroaches were contacted with the sheet for 2 hours inside the ring at 1, 7, 15 and 21 days after spraying followed by observation of mortality 72 hours later.

A short description of series [2]: Solubility / compatibility with kerosene. The class given is physicochemical.
Series [3] deals with House flies (female adults). The series is described as follows: Glass chamber method, test aerosols. In kind it is in vivo. Conditions: for Mortality: 10 minutes exposure, kill rate after additional 24 hours; for KT50 value: glass chamber 0.216 m^3, 1 second spray. The method, then: Glass chamber method: test aerosol insecticides prepared in accordance with Example 1 were sprayed for 1 second in a glass chamber having a volume of 60×60×60 cm (0.216 m^3). House flies (in groups of about 25 female adults each) were released into the chamber 10 seconds later, and the numbers of test […] that fell to the ground and rolled over during 10 minutes of exposure were recorded over the course of time to determine the KT50 values followed by observation of the kill rate after an additional 24 hours.

For the molecule `C#CCC1=C(C)C(OC(=O)C2C(C=C(Cl)Cl)C2(C)C)CC1=O` (stereo not drawn) [Compound 3, 2-Methyl-4-oxo-3-(2-propynyl)-2-cyclopenten-1-yl 2,2-dimethyl-3-(2,2-dichlorovinyl)cyclopropanecarboxylate], in the series on female house flies, the “Insecticidal Efficacy LD50” value stood at 0.245 μg/insect and the “Insecticidal Efficacy Relative efficacy ratio” value came to 11.0. The Relative efficacy ratio in the series with house flies is recorded as 17.

On to `C#CCN1CC(=O)N(COC(=O)[C@@H]2C(C=C(C)C)C2(C)C)C1=O` (mixture of isomers) [Imiprothrin, imiprothrin, reference compound], for which, in series [1], the “Mortality after 24 hours” value worked out at 83% and the KT50 value turned out to be 51 s. Besides, in the series on American cockroaches, the “Mortality after 72 hours, After 1 day of spray” value came out at 0%. Also, the “Solubility in / compatibility with kerosene” value in series [2] is recorded as “extremely poor solubility in kerosene”.

For `C#CCC1=C(C)C(OC(=O)[C@H]2[C@H](C=C(Cl)Cl)C2(C)C)CC1=O` (relative stereo) [Compound 1, (d)-2-methyl-4-oxo-3-(2-propynyl)-2-cyclopenten-1-yl (d)-trans-2,2-dimethyl-3-(2,2-dichlorovinyl)cyclopropanecarboxylate], in the series on female house flies, the “Insecticidal Efficacy LD50” value is reported as 0.0263 μg/insect and the “Insecticidal Efficacy Relative efficacy ratio” value is on record as 100. In series [3] (0.15 g/300 ml aerosol), this molecule registered a Mortality of 93.3% and a KT50 value of 73 s. In series [3] (0.45 g/300 ml aerosol), this molecule yielded a Mortality of 100% and a KT50 value of 36 s. Besides, in series [1], the “Mortality after 24 hours” value is 100% and the KT50 value was determined as 102 s. The “Mortality after 72 hours, After 1 day of spray” value in the series on American cockroaches is on record as 100%. Further, the “Mortality after 72 hours, After 7 days” value in the series with American cockroaches (0.35 g/300 ml aerosol at 25 mL/m^2, 2 hours contact 7 days after spraying) came out at 100%. In addition, the “Mortality after 72 hours, After 15 days” value with American cockroaches (0.35 g/300 ml aerosol at 25 mL/m^2, 2 hours contact 15 days after spraying) was 100%. Moreover, the “Mortality after 72 hours, After 21 days” value with American cockroaches (0.35 g/300 ml aerosol at 25 mL/m^2, 2 hours contact 21 days after spraying) stood at 100%. In addition, in series [2], the “Solubility in / compatibility with kerosene” value is on record as “satisfactory compatibility with solvents such as kerosene”. In the series with house flies, the Relative efficacy ratio is reported as 100.

In series [3] (0.15 g/300 ml aerosol), d-T80-phthalthrin [reference compound] gave a Mortality of 20.0% and a KT50 value of 204 s. For the same molecule, in series [3] (0.45 g/300 ml aerosol), the Mortality is listed as 39.2% and the KT50 value was found to be 73 s. Also, in series [1], the “Mortality after 24 hours” value stood at 33% and the KT50 value was >300 s.

For “2-Methyl-4-oxo-3-(2-propynyl)-2-cyclopenten-1-yl 2,2-dimethyl-3-(2,2-dichlorovinyl)cyclopropanecarboxylate [Compound 2]”, in the series with house flies, the Relative efficacy ratio is on record as 39.

As to `C#CCC1=C(C)C(OC(=O)C2C(C=C(Cl)Cl)C2(C)C)CC1=O` (stereo not drawn) [Compound 6, 2-Methyl-4-oxo-3-(2-propynyl)-2-cyclopenten-1-yl 2,2-dimethyl-3-(2,2-dichlorovinyl)cyclopropanecarboxylate], in the series with female house flies, the “Insecticidal Efficacy LD50” value came to 0.526 μg/insect and the “Insecticidal Efficacy Relative efficacy ratio” value came to 5.0. Further, the Relative efficacy ratio with house flies is reported as 0.4.

For `C#CCC1=C(C)C(OC(=O)C2C(C=C(Cl)Cl)C2(C)C)CC1=O` (stereo not drawn) [Compound 4, 2-Methyl-4-oxo-3-(2-propynyl)-2-cyclopenten-1-yl 2,2-dimethyl-3-(2,2-dichlorovinyl)cyclopropanecarboxylate], in the series on female house flies, the “Insecticidal Efficacy LD50” value is recorded as 0.376 μg/insect and the “Insecticidal Efficacy Relative efficacy ratio” value turned out to be 7.0. For the same molecule, the Relative efficacy ratio in the series with house flies was 13.

With `C#CCC1=C(C)C(OC(=O)C2C(C=C(Cl)Cl)C2(C)C)CC1=O` (stereo not drawn) [Compound 5, 2-Methyl-4-oxo-3-(2-propynyl)-2-cyclopenten-1-yl 2,2-dimethyl-3-(2,2-dichlorovinyl)cyclopropanecarboxylate], in the series on female house flies, the “Insecticidal Efficacy LD50” value worked out at 0.337 μg/insect and the “Insecticidal Efficacy Relative efficacy ratio” value amounted to 7.8. Also, in the series with house flies, the Relative efficacy ratio is listed as 1.3.

Consider `C#CCC1=C(C)C(OC(=O)C2C(C=C(Cl)Cl)C2(C)C)CC1=O` (stereo not drawn) [Compound 7, 2-Methyl-4-oxo-3-(2-propynyl)-2-cyclopenten-1-yl 2,2-dimethyl-3-(2,2-dichlorovinyl)cyclopropanecarboxylate], for which, in the series on female house flies, the “Insecticidal Efficacy LD50” value worked out at 3.29 μg/insect and the “Insecticidal Efficacy Relative efficacy ratio” value is on record as 0.8. Further, the Relative efficacy ratio in the series with house flies is given as 0.2.

For `C#CCC1=C(C)C(OC(=O)C2C(C=C(Cl)Cl)C2(C)C)CC1=O` (stereo not drawn) [Compound 8, 2-Methyl-4-oxo-3-(2-propynyl)-2-cyclopenten-1-yl 2,2-dimethyl-3-(2,2-dichlorovinyl)cyclopropanecarboxylate], in the series on female house flies, the “Insecticidal Efficacy LD50” value is 5.30 μg/insect and the “Insecticidal Efficacy Relative efficacy ratio” value came out at 0.5. Moreover, the Relative efficacy ratio in the series on house flies is recorded as 0.2.

For the molecule `C#CCC1=C(C)C(OC(=O)C2C(C=C(Cl)Cl)C2(C)C)CC1=O` (stereo not drawn) [Compound 2, 2-Methyl-4-oxo-3-(2-propynyl)-2-cyclopenten-1-yl 2,2-dimethyl-3-(2,2-dichlorovinyl)cyclopropanecarboxylate], in the series on female house flies, the “Insecticidal Efficacy LD50” value is listed as 0.0415 μg/insect and the “Insecticidal Efficacy Relative efficacy ratio” value was found to be 63.0.
